Values quoted from earlier work, collected in US20240264159A1 (priority 2021, published 2024).

Tested on: SARS-CoV-2
Details: Bewley et al., 2021; cited from earlier work

heparin
inhibition of SARS-CoV-2 entry into cells: inhibit SARS-CoV-2 entry into cells
